Structures are written as SMILES.

Results on 69 compounds are retold here after patent US11053260B2, “Tri-cycle compound and applications thereof” (FUJIAN COSUNTER PHARMACEUTICAL CO., LTD., priority 2017, dated 2021).

The first experiment relates to HBV. In words: HBV in vitro test in quantitative qPCR assay (HBV DNA content in HepG2.2.15 cells). The conditions noted are these: HBV DNA by qPCR, day 8, read-out: 50% inhibitory concentration (EC50) value of HBV. In kind it is cell-based. The method, then:
HBV In Vitro Test in Quantitative qPCR Assay
The HBV DNA content in HepG2.2.15 cells was determined by real-time quantitative qPCR assay (real time-qPCR), and the inhibitory effect of the compound on HBV was evaluated by the EC50 value of the compound.
2.1 Cell line: HepG2.2.15 cells
3.1 HepG2.2.15 cells (4×10^4 cells/well) were seeded into a 96-well plate and incubated overnight at 37° C. under 5% CO2.
3.2 On the 2nd day, the compound was diluted into 8 concentrations with 3-time gradient. The compounds with different concentrations were added into the culture wells in duplicate wells. The final concentration of DMSO in the culture medium was 1%. 1 μM GLS4 was used as a 100% inhibition control, and 1% DMSO was used as a 0% inhibition control.
3.3 On the 5th day, the culture medium was replaced with a fresh medium containing the compound.
3.4 On the 8th day, the culture medium in the culture well was collected, and the DNA was extracted with a high-throughput DNA purification kit (Qiagen-51162), of which specific procedure was referred to the product specification.
3.6 15 μL of the reaction mixture was added into each well of a 96-well PCR plate, followed by addition of 10 μL of sample DNA or HBV DNA standards into each well.
3.7 PCR reaction conditions: heating at 95° C. for 10 minutes; then denaturation at 95° C. for 15 seconds, extension at 60° C. for 1 minute, a total of 40 cycles.
3.8.1 Calculation of the percentage of inhibition: % Inh.=[1−(DNA copy number in sample−DNA copy number in 1 μM GLS4)/(DNA copy number in DMSO control−DNA copy number in 1 μM GLS4)]×100
3.8.2 Calculation of EC50: The 50% inhibitory concentration (EC50) value of the compound on HBV was calculated by GraphPad Prism software.
(Real-time PCR tracks product formation cycle by cycle.)
Consider `O=C(NCCOc1cccnc1)c1ccc2c(c1)NC(=O)c1cccn1S2(=O)=O` [WX297], for which the EC50 is at most 0.1 µM.

The experiment is the same for the next values; noted with them: Hepatitis B virus, HepG2.2.15, 192 h, HBV DNA by qPCR, day 8, read-out: 50% inhibitory concentration (EC50) value of HBV.
With `O=C(NCCC1CCCO1)c1ccc2c(c1)NC(=O)c1cc(Cl)cn1S2(=O)=O` (stereo not drawn) [WX143], the EC50 was at most 0.1 µM.
As to `CC(C)c1ncc(CNC(=O)c2ccc3c(c2)NC(=O)c2c(Cl)ccn2S3(=O)=O)s1` [WX145], the EC50 lay in the range of 0.1 to 0.5 µM.
Same read-out and setting: for `CC(C)(C)OC(=O)N1CC2C(C1)C2NC(=O)c1ccc2c(c1)NC(=O)c1cccn1S2(=O)=O` (stereo not drawn) [WX146] the value was 1 to 10 µM; for `COCCCNC(=O)c1ccc2c(c1)NC(=O)c1cccn1S2(=O)=O` [WX175], 0.1 to 0.5 µM.
Same read-out and setting: for `O=C(NCc1ccccn1)c1ccc2c(c1)NC(=O)c1cccn1S2(=O)=O` [WX176] the value was 1 to 10 µM.
The same measure, in the same setting: for `O=C(NCCC1CCCC1)c1ccc2c(c1)NC(=O)c1cccn1S2(=O)=O` [WX184] the value was 0.1 to 0.5 µM; for `CCc1cc2n(c1)S(=O)(=O)c1ccc(C(=O)NCCC3CCCO3)cc1NC2=O` (stereo not drawn) [WX185], at most 0.1 µM; for `Cc1cc2n(c1)S(=O)(=O)c1ccc(C(=O)NCCC3CCCO3)cc1NC2=O` (stereo not drawn) [WX186], at most 0.1 µM.
As for `O=C(NCCCC(F)(F)F)c1ccc2c(c1)NC(=O)c1cccn1S2(=O)=O` [WX187], the EC50 was 0.1 to 0.5 µM.
Still for that read-out and setting: for `O=C(NCc1ccc(F)cc1)c1ccc2c(c1)NC(=O)c1cccn1S2(=O)=O` [WX189] the value was 0.1 to 0.5 µM; for `CS(=O)(=O)CCCNC(=O)c1ccc2c(c1)NC(=O)c1cccn1S2(=O)=O` [WX190], 0.5 to 1 µM.
As for `CC(C)(C)OC(=O)N1CC(NC(=O)c2ccc3c(c2)NC(=O)c2cccn2S3(=O)=O)C1` [WX195], the EC50 is 0.5 to 1 µM.
Still for that read-out and setting: for `CC(C)(C)OC(=O)N1CC(CNC(=O)c2ccc3c(c2)NC(=O)c2cccn2S3(=O)=O)C1` [WX196] the value was at most 0.1 µM; for `CC(C)(C)OC(=O)N1CCC(CCNC(=O)c2ccc3c(c2)NC(=O)c2cccn2S3(=O)=O)CC1` [WX197], 0.1 to 0.5 µM; for `CC(C)(C)OC(=O)N1CCCC1CNC(=O)c1ccc2c(c1)NC(=O)c1cccn1S2(=O)=O` (stereo not drawn) [WX198], 0.1 to 0.5 µM.
Still for that read-out and setting: for `CC(C)(C)OC(=O)N1CCC(CNC(=O)c2ccc3c(c2)NC(=O)c2cccn2S3(=O)=O)CC1` [WX200] the value was at most 0.1 µM; for `COC(=O)N1CC(NC(=O)c2ccc3c(c2)NC(=O)c2cccn2S3(=O)=O)C1` [WX201], 0.5 to 1 µM; for `O=C(NCCc1cnco1)c1ccc2c(c1)NC(=O)c1cccn1S2(=O)=O` [WX206], 0.1 to 0.5 µM.
Still for that read-out and setting: for `O=C(NCCN1CCCC1=O)c1ccc2c(c1)NC(=O)c1cccn1S2(=O)=O` [WX208] the value was 0.5 to 1 µM.
Take `O=C(NCCn1ccccc1=O)c1ccc2c(c1)NC(=O)c1cccn1S2(=O)=O` [WX211]: the EC50 lay in the range of 0.5 to 1 µM.
Same read-out and setting: for `O=C(NCCC1CCCCC1)c1ccc2c(c1)NC(=O)c1cccn1S2(=O)=O` [WX215] the value was 0.1 to 0.5 µM.
Still for that read-out and setting: for `O=C(NCCc1ccc(F)cc1)c1ccc2c(c1)NC(=O)c1cccn1S2(=O)=O` [WX216] the value was at most 0.1 µM; for `COc1ccc(CCNC(=O)c2ccc3c(c2)NC(=O)c2cccn2S3(=O)=O)cc1` [WX217], at most 0.1 µM.
The same measure, in the same setting: for `O=C(NCCc1ccccc1)c1ccc2c(c1)NC(=O)c1cccn1S2(=O)=O` [WX218] the value was at most 0.1 µM; for `CSCCNC(=O)c1ccc2c(c1)NC(=O)c1cccn1S2(=O)=O` [WX219], at most 0.1 µM.
Turning to `O=C(NCc1cccnc1)c1ccc2c(c1)NC(=O)c1cccn1S2(=O)=O` [WX220], the EC50 is at most 0.1 µM.
Same read-out and setting: for `COC1(CCNC(=O)c2ccc3c(c2)NC(=O)c2cccn2S3(=O)=O)CC1` [WX223] the value was 0.5 to 1 µM.
The same measure, in the same setting: for `O=C(NCCC1CCC(F)(F)CC1)c1ccc2c(c1)NC(=O)c1cccn1S2(=O)=O` [WX225] the value was 0.1 to 0.5 µM; for `O=C(NCCN1CCCS1(=O)=O)c1ccc2c(c1)NC(=O)c1cccn1S2(=O)=O` [WX226], 0.5 to 1 µM; for `O=C(NCc1cccc(OC(F)(F)F)c1)c1ccc2c(c1)NC(=O)c1cccn1S2(=O)=O` [WX227], 0.1 to 0.5 µM.
On the same count and under the same terms, for `O=C(NCc1ccncc1)c1ccc2c(c1)NC(=O)c1cccn1S2(=O)=O` [WX228] the value was 0.1 to 0.5 µM; for `O=C(NCCc1ccccn1)c1ccc2c(c1)NC(=O)c1cccn1S2(=O)=O` [WX229], 0.1 to 0.5 µM.
On to `O=C(NCCC(F)(F)F)c1ccc2c(c1)NC(=O)c1cccn1S2(=O)=O` [WX230], for which the EC50 lay within 0.1 to 0.5 µM.
Still for that read-out and setting: for `O=C(NCc1cncnc1)c1ccc2c(c1)NC(=O)c1cccn1S2(=O)=O` [WX231] the value was 0.1 to 0.5 µM; for `CS(=O)(=O)N1CC(NC(=O)c2ccc3c(c2)NC(=O)c2cccn2S3(=O)=O)C1` [WX232], 0.5 to 1 µM; for `CN(C)c1ncc(CNC(=O)c2ccc3c(c2)NC(=O)c2cccn2S3(=O)=O)s1` [WX233], at most 0.1 µM.
Same read-out and setting: for `O=C(NCc1ccc(C(F)(F)F)cc1)c1ccc2c(c1)NC(=O)c1cccn1S2(=O)=O` [WX235] the value was 0.1 to 0.5 µM.
As to `O=C(NCCc1cccc(F)c1)c1ccc2c(c1)NC(=O)c1cccn1S2(=O)=O` [WX237], the EC50 is at most 0.1 µM.
As for `O=C(NCc1cccc(F)c1)c1ccc2c(c1)NC(=O)c1cccn1S2(=O)=O` [WX239], the EC50 was at most 0.1 µM.
The same measure, in the same setting: for `CC(C)c1ncc(CNC(=O)c2ccc3c(c2)NC(=O)c2cccn2S3(=O)=O)s1` [WX254] the value was 0.1 to 0.5 µM.
With `CC(C)c1ncc(CNC(=O)c2ccc3c(c2)NC(=O)c2cc(Cl)cn2S3(=O)=O)s1` [WX255], the EC50 was at most 0.1 µM.
Same read-out and setting: for `O=C(NCc1cnc(Cl)s1)c1ccc2c(c1)NC(=O)c1cccn1S2(=O)=O` [WX257] the value was at most 0.1 µM; for `Cc1cccc2ncc(CNC(=O)c3ccc4c(c3)NC(=O)c3cccn3S4(=O)=O)n12` [WX258], 0.1 to 0.5 µM.
Same read-out and setting: for `Cc1ccsc1CNC(=O)c1ccc2c(c1)NC(=O)c1cccn1S2(=O)=O` [WX259] the value was 0.1 to 0.5 µM.
On the same count and under the same terms, for `Cc1nc(C)c(CNC(=O)c2ccc3c(c2)NC(=O)c2cccn2S3(=O)=O)s1` [WX260] the value was at most 0.1 µM; for `Cc1ccc2ncc(CNC(=O)c3ccc4c(c3)NC(=O)c3cccn3S4(=O)=O)n2c1` [WX261], 0.1 to 0.5 µM.
Consider `Cc1ccc(CNC(=O)c2ccc3c(c2)NC(=O)c2cccn2S3(=O)=O)s1` [WX262], for which the EC50 was 0.1 to 0.5 µM.
On the same count and under the same terms, for `Cn1nccc1CNC(=O)c1ccc2c(c1)NC(=O)c1cccn1S2(=O)=O` [WX263] the value was 0.5 to 1 µM; for `O=C(NCc1cnccc1C(F)(F)F)c1ccc2c(c1)NC(=O)c1cccn1S2(=O)=O` [WX265], 1 to 10 µM.
On the same count and under the same terms, for `CN(Cc1nc2ccccc2s1)C(=O)c1ccc2c(c1)NC(=O)c1cccn1S2(=O)=O` [WX266] the value was 0.1 to 0.5 µM; for `O=C(NCc1cnc2ccccn12)c1ccc2c(c1)NC(=O)c1cccn1S2(=O)=O` [WX267], 0.1 to 0.5 µM; for `O=C(NCCC1CCCO1)c1ccc2c(c1)NC(=O)c1cc(F)cn1S2(=O)=O` (stereo not drawn) [WX270], 0.1 to 0.5 µM.
For `Cc1nnc(CNC(=O)c2ccc3c(c2)NC(=O)c2cccn2S3(=O)=O)s1` [WX271], the EC50 was in the range of 0.5 to 1 µM.
Same read-out and setting: for `Cn1cc(CNC(=O)c2ccc3c(c2)NC(=O)c2cccn2S3(=O)=O)cn1` [WX272] the value was 0.1 to 0.5 µM.
The same measure, in the same setting: for `CN1CC(CNC(=O)c2ccc3c(c2)NC(=O)c2cccn2S3(=O)=O)OC1=O` (stereo not drawn) [WX275] the value was 0.5 to 1 µM; for `O=C(NCCc1cccnc1)c1ccc2c(c1)NC(=O)c1cccn1S2(=O)=O` [WX278], at most 0.1 µM; for `CC(C)(C)C(=O)N1CCC(CNC(=O)c2ccc3c(c2)NC(=O)c2cccn2S3(=O)=O)CC1` [WX279], 0.1 to 0.5 µM.
Same read-out and setting: for `O=C(NCC1CCOC1)c1ccc2c(c1)NC(=O)c1cccn1S2(=O)=O` (stereo not drawn) [WX280] the value was 0.1 to 0.5 µM.
On to `CC(C)OC(=O)N1CCC(CNC(=O)c2ccc3c(c2)NC(=O)c2cccn2S3(=O)=O)CC1` [WX285], for which the EC50 fell in the range of 0.1 to 0.5 µM.
Same read-out and setting: for `O=C(NCC1CCN(C(=O)Oc2ccccc2)CC1)c1ccc2c(c1)NC(=O)c1cccn1S2(=O)=O` [WX286] the value was 0.5 to 1 µM.
Same read-out and setting: for `CC(C)CC(=O)N1CCC(CNC(=O)c2ccc3c(c2)NC(=O)c2cccn2S3(=O)=O)CC1` [WX287] the value was 0.5 to 1 µM; for `O=C(NCC1CCC(F)(F)CC1)c1ccc2c(c1)NC(=O)c1cccn1S2(=O)=O` [WX288], 0.1 to 0.5 µM.
Still for that read-out and setting: for `O=C(NCCOC1CCCC1)c1ccc2c(c1)NC(=O)c1cccn1S2(=O)=O` [WX292] the value was 0.5 to 1 µM; for `O=C(NCCc1ccc(F)c(F)c1)c1ccc2c(c1)NC(=O)c1cccn1S2(=O)=O` [WX293], at most 0.1 µM.
Consider `O=C(NCCOc1cccnc1)c1ccc2c(c1)NC(=O)c1cccn1S2(=O)=O` [WX295], for which the EC50 was in the range of 0.1 to 0.5 µM.
On the same count and under the same terms, for `N#Cc1ccc(-c2ncc(CNC(=O)c3ccc4c(c3)NC(=O)c3cccn3S4(=O)=O)s2)cc1` [WX298] the value was at most 0.1 µM.
With `O=C(NCCCc1ccc(F)cc1)c1ccc2c(c1)NC(=O)c1cccn1S2(=O)=O` [WX299], the EC50 is 0.1 to 0.5 µM.
Still for that read-out and setting: for `O=C(NCCc1cccc(Cl)c1)c1ccc2c(c1)NC(=O)c1cccn1S2(=O)=O` [WX300] the value was 0.1 to 0.5 µM.
